In PMC5279725 (PLoS ONE, 2017):

Columns and labels:
[1] = system: MPO in CF sputum sol; assay: MPO peroxidase activity (TMB) in CF sputum sol ± neutrophils (PMN), heat-killed P. aeruginosa or heat-aggregated IgG; assay type: biochemical; settings: CF sol only, + killed P. aeruginosa, + Agg IgG
Method: To these samples were added 1×10^6 neutrophils for 1 hour at 37°C. These samples were then analyzed for MPO peroxidase activity by TMB assay, described below.
(§1) To measure MPO peroxidase activity using TMB, 20 μl of assay supernatant, CF sol, or neutrophil lysate was serially diluted and then combined with 100 μl of TMB in a non-treated 96-well plate followed by 100 μl of 2.5 N H2SO4 (stop buffer) and absorbance was read at 450 nm. For MPO functional assays using ABTS, 150 μl of ABTS solution was added to each sample and incubated for 5 minutes before adding 100 μl of 1% SDS to stop the reaction. Absorbance was read at 405 nm. O-dianisidine working solution was prepared by making a 0.166 mg/ml solution in 50 mM phosphate-citrate buffer, pH 5.0 with a final of 0.006% H2O2 added immediately before use. For MPO measurements, 100 μl of the prepared O-dianisidine solution was added to each sample and incubated for 2 minutes before adding 100 μl of 2.5 N H2SO4 to stop the reaction. Absorbance was read at 405 nm.

[2] = system: MPO in CF sputum sols; assay: MPO peroxidase activity (TMB) in 14 clinical CF sputum sols; assay type: biochemical
Method: Expectorated sputum samples were collected in sterile containers and immediately placed on ice. The soluble fraction (sol) was extracted as a supernatant of free flowing liquid after cold (4°C) centrifugation at 14,000 g for 60 minutes, similar to previously described methods. Due to the normal differences in CF sputum viscosity, sol fractions were not normalized for protein content consistent with previously described methods.
as §1

[3] = system: MPO in CF sputum sol; assay: PIC1 dose-response on MPO activity (TMB) in CF sputum sol #2m; assay type: biochemical
Method: as §1

[4] = system: MPO in CF sol; assay: pH effect on MPO peroxidase activity (TMB) in CF sol; assay type: biochemical; settings: PIC1 7.5 mM (pH 4.7) vs sol acidified to pH 4.0
Method: Assays of pH effect on MPO peroxidase activity in CF sols was performed by adjusting one representative CF sol, initially at a pH of 7.0, to pH values of 6.0, 5.0, and 4.0 using H2SO4. […] TMB was added after 5 minutes.
as §1

[5] = system: MPO in neutrophil lysate; assay: MPO peroxidase activity (TMB) in neutrophil lysate; assay type: biochemical; settings: 0.9 mM PIC1 vs no PIC1, n = 4, P < 0.001
Method: Neutrophils from the blood of healthy volunteers were purified from heparinized blood by Hypaque-Ficoll step gradient centrifugation, dextran sedimentation, and hypotonic lysis, as previously described. Neutrophils were adjusted to 1×10^7 cells/ml for the functional studies. Neutrophils were sedimented, lysed in 1% Triton X-100, and 1×10^6 cell/ml equivalent aliquots were used for neutrophil lysate assays.
(§2) MPO peroxidase activity utilizing pure MPO was assayed by combing the MPO solution, diluted to 160 nM with PBS buffer, with an inhibitor, at denoted concentrations, in a 1:1 ratio (v/v) for 1 min. prior to adding TMB.
as §1, with “For MPO measurements, 100 μl of the prepared O-dianisidine solution was added to each sample and incubated for 2 minutes before adding 100 μl of 2.5 N H2SO4 to stop the reaction.” left out

[6] = system: purified MPO; assay: Purified MPO oxidation of TMB; assay type: biochemical
Method: as §2, §1

[7] = system: purified MPO; assay: Purified MPO oxidation of ABTS; assay type: biochemical; settings: PIC1 0.5–0.9 mM
Method: as §2, §1

[8] = system: purified MPO; assay: Purified MPO oxidation of O-dianisidine; assay type: biochemical; settings: PIC1 0.5–0.9 mM
Method: as §2, §1

[9] = system: purified MPO; assay: Dose-response inhibition of pure MPO at various MPO concentrations; assay type: biochemical
Method: as §1

[10] = system: MPO heme ring; assay: Spectral analysis of MPO heme ring with H2O2; settings: 2.5 mM PIC1, 200 μM H2O2
Method: (§3) As each component is added to the MPO it is allowed to incubate for 5 minutes. […] Absorbance values were recorded from 300–550 nm.

[11] = system: MPO heme ring; assay: Spectral analysis of MPO heme ring with bleach (NaOCl); settings: 2 μM MPO, 2.5 mM PIC1, bleach 1:1000, n = 2
Method: as §3

[12] = system: MPO; assay: Ferrozine assay of Fe release from MPO in the presence of bleach; settings: 2 μM MPO, 2.5 mM PIC1, bleach 1:1000; 562 nm
Method: Iron release from MPO was measured utilizing a ferrozine assay. After the absorbance spectra was recorded, 100 μl of ascorbic acid (100 mM) was added to each sample and allowed to incubate for 5 minutes. Then 50 μl of ammonium acetate (16%) and 50 μl of ferrozine (16 mM) were added to the samples and mixed. After incubating for 5 minutes, absorbance was measured at 562 nm. A standard curve was prepared using ammonium Fe(III) sulfate and a linear regression was used to calculate the free iron concentration.

[13] = Reversal/inhibition of TMB oxidation, PIC1 added before TMB or after TMB incubated with MPO; assay type: biochemical; settings: PIC1 added after MPO and TMB had incubated
Method: We then tested whether PIC1 could reverse the oxidized state of TMB after incubation with MPO.

[14] = Anti-oxidant assay: TMB oxidized by solid-phase MPO, transferred to uncoated well; assay type: biochemical; settings: absorbance 450 nm, n = 4, P = 0.02
Method: Pure MPO was coated onto an Immunlon-2 96 well plate at 24 μg/ml in carbonate buffer overnight at 4°C. The plate was washed to remove unbound protein with PBS and 0.05% Tween, and then 100 μl of TMB was added. […] After 1 minute, 100 μl of 2.5 N H2SO4 was added to stop the reaction and absorbance was read at 450 nm.

[15] = system: C1q; settings: cited from earlier work
[16] = system: complement activation; settings: cited from earlier work
Text: DMSO as a diluent decreas ...

[17] = cited from earlier work
Text: Evidence from previous investigators implicate MPO as a major contributor to CF lung damage, which is consistent with MPO being the most prevalent peroxidase in neutrophils and the clear role of neutrophils mediating lung destruction in CF.

## IALILEPICCQERAA-dPEG24 [PIC1]
[1]
  MPO oxidation of TMB: dramatically inhibited MPO oxidation of TMB in all conditions
[2]; 7.5 mM PIC1, 14 CF sputum samples, as number of neutrophils lysed to yield equivalent TMB oxidation, baseline median 94.0, P = 0.02
  median MPO activity after PIC1: 27.9
[2]; 7.5 mM PIC1, 14 CF sputum samples, vs baseline, P = 0.02
  decrease in median MPO activity: 3.4 fold
[2]; 7.5 mM PIC1, each of 14 samples
  change in MPO activity: decrease in MPO activity
[2]; PIC1 7.5 mM, 14 samples, MPO-pre median 93.975
  MPO-postPIC1 median: 27.935 x 10E6
[2]; PIC1 7.5 mM, sample 1e, MPO-pre 117.41
  MPO-postPIC1: 30.1 x 10E6
[2]; PIC1 7.5 mM, sample 2j, MPO-pre 17.29
  MPO-postPIC1: 0 x 10E6
[2]; PIC1 7.5 mM, sample 2m, MPO-pre 158.85
  MPO-postPIC1: 43.21 x 10E6
[2]; PIC1 7.5 mM, sample 3i, MPO-pre 1117.64
  MPO-postPIC1: 493.15 x 10E6
[2]; PIC1 7.5 mM, sample 4a, MPO-pre 7.9
  MPO-postPIC1: 0 x 10E6
[2]; PIC1 7.5 mM, sample 5e, MPO-pre 305.93
  MPO-postPIC1: 173.21 x 10E6
[2]; PIC1 7.5 mM, sample 10g, MPO-pre 71.54
  MPO-postPIC1: 19.09 x 10E6
[2]; PIC1 7.5 mM, sample 15e, MPO-pre 55.77
  MPO-postPIC1: 12.92 x 10E6
[2]; PIC1 7.5 mM, sample 17c, MPO-pre 77.44
  MPO-postPIC1: 25.77 x 10E6
[2]; PIC1 7.5 mM, sample 28a, MPO-pre 325.09
  MPO-postPIC1: 297.05 x 10E6
[2]; PIC1 7.5 mM, sample 29e, MPO-pre 110.51
  MPO-postPIC1: 43.24 x 10E6
[2]; PIC1 7.5 mM, sample 34j, MPO-pre 68.92
  MPO-postPIC1: 16.55 x 10E6
[2]; PIC1 7.5 mM, sample 1d, MPO-pre 229
  MPO-postPIC1: 214.65 x 10E6
[2]; PIC1 7.5 mM, sample 9d, MPO-pre 34.41
  MPO-postPIC1: 0 x 10E6
[3]; 7.5 mM PIC1 vs no PIC1, n = 3, P = 0.001
  reduction in MPO activity: 11.5 fold
[3]; PIC1 titration
  inhibition of MPO activity: dose-dependent inhibition of MPO activity
[4]
  role of acidification in MPO inhibition: not mediated by acidification of the sol
[5]
  inhibition of MPO activity: 12.5 fold
[6]; 0.9 mM PIC1, MPO 80 nM, n = 3, P < 0.001
  inhibition of purified MPO oxidation of TMB: 28 fold
[6]; 0.9 mM, TMB, P = 0.002
  improvement in MPO inhibition compared with ABAH: 7 fold
[7]
  inhibition of purified MPO oxidation of ABTS: dramatically inhibited
[8]
  inhibition of purified MPO oxidation of O-dianisidine: dramatically inhibited
[9]; 0.5 mM PIC1, 20 μM MPO, P < 0.001
  inhibition of MPO peroxidase activity: 5.4 fold
[9]; MPO concentrations up to 80 μM
  inhibition of MPO peroxidase activity: Concentration dependent PIC1 inhibition of MPO peroxidase activity
[10]
  heme ring protection: able to inhibit oxidative damage to the heme ring and alteration of the iron charge state
[11]
  protection of MPO from bleach: largely protected from the oxidative effects of bleach
[12]
  bleach-mediated iron release from MPO: able to prevent bleach-mediated release of iron from MPO
[13]
  reversal of TMB oxidation: the color change was reversed and the absorbance value was minimal
[14]
  reduction in oxidized TMB: 20 fold
[15]
  C1 enzymatic activation: inhibits enzymatic activation
[15]; similar to C1r-C1s-C1s-C1r tetramer
  C1q binding affinity: nanomolar affinity
[16]; CF sputum sols
  P. aeruginosa-initiated complement activation: can inhibit P. aeruginosa-initiated complement activation
[16]; CF sputum soluble fraction
  C5a generation: can inhibit P. aeruginosa-mediated generation of the pro-inflammatory anaphylatoxin C5a
[17]
  aqueous solubility: excellent aqueous solubility
  tolerability in vivo: well tolerated in vivo
